Laboratory results from patent US20220177466A1, “DEGRADERS OF KELCH-LIKE ECH-ASSOCIATED PROTEIN 1 (KEAP1)” (DANA-FARBER CANCER INSTITUTE, INC., priority 2019, published 2022).

Columns and labels:
Format in all cases: cell-based
[1] = biological target: T1, KEAP1 (Homo sapiens, UniProt Q14145); experiment: Rescue of degrader-induced KEAP1 degradation by pretreatment in MM.1S cells, immunoblot; conditions: pretreatment 2 h (10 μM DGY-03-118, 10 μM Lenalidomide, 0.5 μM Bortezomib, 1 μM MLN4924); for rescue of the KEAP1 degradation induced by compound 1: then 5 μM compound 1 for 2 h, FIG. 4A; for rescue of the KEAP1 degradation induced by compound 4: then 5 μM compound 4 for 2 h, FIG. 4B
T1 construct: endogenous in cells; host or cells: MM.1S cells
T1 sequence (Q14145 whole entry): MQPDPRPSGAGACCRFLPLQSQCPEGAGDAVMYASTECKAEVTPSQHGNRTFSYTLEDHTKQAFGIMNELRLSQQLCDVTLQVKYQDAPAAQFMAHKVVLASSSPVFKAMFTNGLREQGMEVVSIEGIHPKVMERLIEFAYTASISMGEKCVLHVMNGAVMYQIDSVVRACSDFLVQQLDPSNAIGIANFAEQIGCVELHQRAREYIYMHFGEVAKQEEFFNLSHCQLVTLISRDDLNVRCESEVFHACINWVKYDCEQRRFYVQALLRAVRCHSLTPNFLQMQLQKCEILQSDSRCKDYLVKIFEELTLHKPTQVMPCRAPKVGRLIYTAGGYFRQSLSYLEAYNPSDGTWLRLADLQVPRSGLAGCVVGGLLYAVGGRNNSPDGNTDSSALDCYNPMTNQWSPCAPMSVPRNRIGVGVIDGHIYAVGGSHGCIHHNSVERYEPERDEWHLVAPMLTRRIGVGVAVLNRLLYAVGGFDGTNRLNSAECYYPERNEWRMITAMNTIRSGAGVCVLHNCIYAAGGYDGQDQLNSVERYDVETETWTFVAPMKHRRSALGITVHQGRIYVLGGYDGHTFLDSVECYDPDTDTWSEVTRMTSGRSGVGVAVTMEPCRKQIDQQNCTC
Description: (§1) MM.1S cells were treated with 0, 0.1 μM, 1 μM, or 10 μM of compound 1 or compound 4 or 0.25 μM THAL-SNS-032 (a known CDK9 degrader, as a positive control for CDK9 degradation) for 16 hours. Cells were then lysed in RIPA buffer (Sigma) containing protease/phosphatase inhibitor cocktail (Roche). The protein concentrations were measured by bicinchoninic acid assay (BCA) analysis (Pierce™). Equal amounts of protein were resolved by 4-12% Tris-Base gels (Invitrogen), and then transferred to the Immuno-Blot polyvinylidene difluoride (PVDF) membrane (BioRad), and immunoblotted with primary antibodies against KEAP1 (cell signaling), CRBN (cell signaling), CDK9 (cell signaling) and R-Actin (cell signaling), and then immunoblotted with IRDye® 800-labeled goat anti-rabbit IgG and IRDye®800-labeled goat anti-mouse IgG (LI-COR) secondary antibodies. The membranes were detected on Odyssey CLx system.
MM.1S cells were pretreated with 10 μM DGY-03-118 (the parental compound and known KEAP1 inhibitor), 10 μM Lenalidomide (CRBN ligand), 0.5 μM Bortezomib (a proteasome inhibitor) and 1 μM MLN4924 (a neddylation inhibitor) for 2 h, and then treated with 5 μM compound 1 for 2 h. Cells were lysed and immunoblotted as described above with antibodies to KEAP1 and β-Actin.
MM.1S cells were pretreated with 10 μM DGY-03-118 (the parental compound and known KEAP1 inhibitor), 10 μM Lenalidomide (CRBN ligand), 0.5 μM Bortezomib (a proteasome inhibitor) and 1 μM MLN4924 (a neddylation inhibitor) for 2 h, and then treated with 5 μM compound 4 for 2 h. Cells were lysed and immunoblotted as described above with antibodies to KEAP1 and β-Actin.

[2] = biological target: T2, CDK9 (Homo sapiens, UniProt P50750+Q96SW2); experiment: CDK9 degradation in MM.1S cells, immunoblot (positive control); conditions: 0.25 μM, 16 hours, FIG. 1
T2 construct: endogenous in cells; host or cells: MM.1S cells
Description: as §1

[3] = biological target: T3, GSPT1 (Homo sapiens, UniProt P15170); experiment: Off-target degradation in MM.1S cells, immunoblot: GSPT1; conditions: 5 μM, up to 6 h, FIG. 2
T3 construct: endogenous in cells; host or cells: MM.1S cells
T3 sequence (Q96SW2 whole entry partner): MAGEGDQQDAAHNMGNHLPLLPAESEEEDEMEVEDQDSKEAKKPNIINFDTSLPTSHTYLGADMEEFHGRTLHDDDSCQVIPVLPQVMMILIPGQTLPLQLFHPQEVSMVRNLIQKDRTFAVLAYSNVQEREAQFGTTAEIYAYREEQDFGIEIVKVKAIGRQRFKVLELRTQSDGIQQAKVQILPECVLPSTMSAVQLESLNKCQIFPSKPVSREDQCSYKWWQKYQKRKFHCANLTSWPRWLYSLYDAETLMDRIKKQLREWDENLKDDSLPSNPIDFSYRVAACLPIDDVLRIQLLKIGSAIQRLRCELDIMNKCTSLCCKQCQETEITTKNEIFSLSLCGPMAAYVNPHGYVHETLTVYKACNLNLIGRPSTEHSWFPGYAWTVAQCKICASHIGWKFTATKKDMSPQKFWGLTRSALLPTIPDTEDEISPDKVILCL
T3 sequence (Q16531 whole entry partner): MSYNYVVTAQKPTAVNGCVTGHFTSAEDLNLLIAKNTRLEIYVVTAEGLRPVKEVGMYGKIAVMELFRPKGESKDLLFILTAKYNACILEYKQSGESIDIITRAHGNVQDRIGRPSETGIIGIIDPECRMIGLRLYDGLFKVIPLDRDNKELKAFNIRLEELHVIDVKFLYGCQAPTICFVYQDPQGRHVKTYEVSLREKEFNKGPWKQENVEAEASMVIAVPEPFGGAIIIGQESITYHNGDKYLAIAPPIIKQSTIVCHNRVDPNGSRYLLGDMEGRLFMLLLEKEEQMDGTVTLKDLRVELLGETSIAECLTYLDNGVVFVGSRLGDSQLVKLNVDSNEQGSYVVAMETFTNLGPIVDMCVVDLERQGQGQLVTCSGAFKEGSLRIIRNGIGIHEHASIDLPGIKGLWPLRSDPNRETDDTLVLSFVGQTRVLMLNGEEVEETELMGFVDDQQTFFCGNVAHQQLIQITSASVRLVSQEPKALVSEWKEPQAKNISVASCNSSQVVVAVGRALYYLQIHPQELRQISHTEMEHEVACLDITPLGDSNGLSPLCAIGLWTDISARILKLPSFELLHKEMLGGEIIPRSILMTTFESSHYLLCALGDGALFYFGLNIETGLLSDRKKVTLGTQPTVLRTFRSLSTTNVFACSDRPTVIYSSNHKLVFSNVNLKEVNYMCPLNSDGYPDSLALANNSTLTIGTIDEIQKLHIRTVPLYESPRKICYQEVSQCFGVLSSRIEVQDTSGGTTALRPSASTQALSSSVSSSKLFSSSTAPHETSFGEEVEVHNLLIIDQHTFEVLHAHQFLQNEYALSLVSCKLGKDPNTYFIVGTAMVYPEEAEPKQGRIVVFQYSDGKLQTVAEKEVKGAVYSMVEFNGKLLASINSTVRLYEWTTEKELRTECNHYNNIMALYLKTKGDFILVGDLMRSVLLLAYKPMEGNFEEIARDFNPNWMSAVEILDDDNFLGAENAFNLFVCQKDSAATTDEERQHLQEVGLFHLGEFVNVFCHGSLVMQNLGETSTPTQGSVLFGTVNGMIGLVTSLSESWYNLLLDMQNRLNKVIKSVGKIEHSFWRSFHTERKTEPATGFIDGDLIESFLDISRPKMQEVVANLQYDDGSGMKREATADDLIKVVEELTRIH
T3 sequence (P15170 whole entry): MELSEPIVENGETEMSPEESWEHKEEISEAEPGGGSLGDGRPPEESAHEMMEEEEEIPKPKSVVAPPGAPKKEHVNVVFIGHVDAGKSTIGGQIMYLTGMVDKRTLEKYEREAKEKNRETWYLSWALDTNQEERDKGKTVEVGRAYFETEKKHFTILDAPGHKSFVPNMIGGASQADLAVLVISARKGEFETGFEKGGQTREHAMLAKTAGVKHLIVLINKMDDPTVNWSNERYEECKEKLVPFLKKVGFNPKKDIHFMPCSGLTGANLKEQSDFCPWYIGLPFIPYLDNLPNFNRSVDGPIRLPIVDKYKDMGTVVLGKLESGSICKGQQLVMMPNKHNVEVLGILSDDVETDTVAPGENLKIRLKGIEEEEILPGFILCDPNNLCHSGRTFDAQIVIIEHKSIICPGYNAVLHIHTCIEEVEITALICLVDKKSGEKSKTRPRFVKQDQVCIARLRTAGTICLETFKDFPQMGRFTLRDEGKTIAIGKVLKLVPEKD
Description: as §1
(§2) MM.1S cells were treated with 0 or 5 μM compound 1 or compound 4 for 0, 2, 4, or 6 h. Cells were lysed and immunoblotted as described above with antibodies to KEAP1 (cell signaling), CRBN (cell signaling), IKZF1 (cell signaling), IKZF3 (cell signaling), GSPT1 (abcam) and R-Actin (cell signaling).

[4] = biological target: T1, KEAP1; experiment: KEAP1 levels after washout in MM.1S cells, immunoblot; conditions: 5 μM for 2 h, washout at 2, 4, 7 and 24 hours, FIG. 5A/5B
Description: as §1
MM.1S cells were treated with 0 or 5 μM compound 1 for 2 h, followed by washout at 2, 4, 7, and 24 hours. Cells were lysed and immunoblotted as described above with antibodies to KEAP1 and β-Actin.
MM.1S cells were treated with 0 or 5 μM compound 4 for 2 h, followed by washout at 2, 4, 7, and 24 hours. Cells were lysed and immunoblotted as described above with antibodies to KEAP1 and β-Actin.

[5] = biological target: T4, IKZF3 (Homo sapiens, UniProt Q9UKT9); experiment: Off-target degradation in MM.1S cells, immunoblot: IKZF3; conditions: 5 μM, up to 6 h, FIG. 2
T4 construct: endogenous in cells; host or cells: MM.1S cells
T4 sequence (Q96SW2 whole entry partner): as the sequence (Q96SW2 whole entry partner) above
T4 sequence (Q16531 whole entry partner): as the sequence (Q16531 whole entry partner) above
T4 sequence (Q9UKT9 whole entry): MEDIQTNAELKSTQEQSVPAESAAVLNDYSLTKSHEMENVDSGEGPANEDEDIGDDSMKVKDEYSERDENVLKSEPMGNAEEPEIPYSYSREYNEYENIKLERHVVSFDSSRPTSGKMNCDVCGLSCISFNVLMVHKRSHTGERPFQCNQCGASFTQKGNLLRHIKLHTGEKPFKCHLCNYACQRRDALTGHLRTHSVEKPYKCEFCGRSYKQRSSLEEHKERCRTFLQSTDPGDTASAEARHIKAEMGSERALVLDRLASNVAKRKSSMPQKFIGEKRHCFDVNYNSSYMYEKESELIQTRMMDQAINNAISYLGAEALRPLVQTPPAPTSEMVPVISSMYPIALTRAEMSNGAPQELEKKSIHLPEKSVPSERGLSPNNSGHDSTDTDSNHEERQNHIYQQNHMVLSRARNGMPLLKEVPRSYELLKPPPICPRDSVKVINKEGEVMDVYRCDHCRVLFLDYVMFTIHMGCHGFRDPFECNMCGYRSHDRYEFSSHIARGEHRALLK
Description: as §1, §2

[6] = biological target: T1, KEAP1; experiment: Knockdown of KEAP1 in MM.1S cells, immunoblot, concentration series, 16 h; conditions: 0.1 μM, 1 μM or 10 μM, FIG. 1
Description: as §1

[7] = biological target: T1, KEAP1; experiment: KEAP1 degradation in CRBN−/− MM.1S cells, immunoblot; conditions: 5 μM, 0, 2, 4 or 6 h, FIG. 3
Description: as §1
(§3) Wild-type (WT) (left panel) or CRBN−/− (right panel) MM.1 S cells were treated with 0 or 5 μM compound 1 or compound 4 for 0, 2, 4, or 6 h. Cells were lysed and immunoblotted as described above with antibodies to KEAP1 (cell signaling) and R-Actin (cell signaling).

[8] = biological target: T5, IKZF1 (Homo sapiens, UniProt Q13422); experiment: Off-target degradation in MM.1S cells, immunoblot: IKZF1; conditions: 5 μM, up to 6 h, FIG. 2
T5 construct: endogenous in cells; host or cells: MM.1S cells
T5 sequence (Q96SW2 whole entry partner): as the sequence (Q96SW2 whole entry partner) above
T5 sequence (Q16531 whole entry partner): as the sequence (Q16531 whole entry partner) above
T5 sequence (Q13422 whole entry): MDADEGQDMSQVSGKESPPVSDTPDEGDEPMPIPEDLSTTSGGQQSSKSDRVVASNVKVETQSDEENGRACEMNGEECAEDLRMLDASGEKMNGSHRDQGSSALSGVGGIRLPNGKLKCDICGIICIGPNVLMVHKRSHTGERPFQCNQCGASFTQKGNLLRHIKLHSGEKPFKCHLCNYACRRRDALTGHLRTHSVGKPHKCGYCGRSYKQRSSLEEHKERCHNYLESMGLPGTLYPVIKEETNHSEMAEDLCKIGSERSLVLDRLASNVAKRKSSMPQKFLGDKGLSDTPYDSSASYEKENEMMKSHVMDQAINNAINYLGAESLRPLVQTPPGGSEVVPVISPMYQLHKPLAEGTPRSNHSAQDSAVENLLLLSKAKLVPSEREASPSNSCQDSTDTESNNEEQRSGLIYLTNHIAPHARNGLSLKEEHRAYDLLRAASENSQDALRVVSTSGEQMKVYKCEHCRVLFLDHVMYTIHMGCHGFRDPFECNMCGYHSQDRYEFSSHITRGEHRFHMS
Description: as §1, §2

[9] = biological target: T1, KEAP1; experiment: KEAP1 degradation in wild-type (WT) MM.1S cells, immunoblot; conditions: 5 μM, 0, 2, 4 or 6 h, FIG. 3
Description: as §1, §3

SMILES: CC(C)C[C@H](NC(=O)[C@H](Cc1ccccc1)NC(=O)c1cnccn1)B(O)O [Bortezomib]
- rescue of the KEAP1 degradation induced by compound 1 [1]: rescued the KEAP1 degradation
- rescue of the KEAP1 degradation induced by compound 4 [1]: rescued the KEAP1 degradation

SMILES: Nc1cccc2c1CN(C1CCC(=O)NC1=O)C2=O (stereo not drawn) [Lenalidomide]
- rescue of the KEAP1 degradation induced by compound 1 [1]: rescued the KEAP1 degradation
- rescue of the KEAP1 degradation induced by compound 4 [1]: rescued the KEAP1 degradation

SMILES: NS(=O)(=O)OC[C@@H]1C[C@@H](n2ccc3c(N[C@H]4CCc5ccccc54)ncnc32)C[C@@H]1O [MLN4924]
- rescue of the KEAP1 degradation induced by compound 1 [1]: rescued the KEAP1 degradation
- rescue of the KEAP1 degradation induced by compound 4 [1]: rescued the KEAP1 degradation

SMILES: CC(C)(C)c1cnc(CSc2cnc(NC(=O)C3CCN(CC(=O)NCCOCCOCCOCCNc4cccc5c4C(=O)N(C4CCC(=O)NC4=O)C5=O)CC3)s2)o1 (stereo not drawn) [THAL-SNS-032]
- CDK9 degradation [2]: induced CDK9 degradation

SMILES: COc1cc(C(CC(=O)O)c2ccc(C)c(CN3C[C@@H](C)Oc4cc(CCCCCCNC(=O)COc5cccc6c5C(=O)N(C5CCC(=O)NC5=O)C6=O)ccc4S3(=O)=O)c2)cc2nnn(C)c12 (stereo partly drawn) [compound 1, 3-(3-(((4R)-7-(6-(2-((2-(2,6-dioxopiperidin-3-yl)-1,3-dioxoisoindolin-4-yl)oxy)acetamido)hexyl)-4-methyl-1,1-dioxido-3,4-dihydro-2H-benzo[b][1,4,5]oxathiazepin-2-yl)methyl)-4-methylphenyl)-3-(7-methoxy-1-methyl-1H-benzo[d][1,2,3]triazol-5-yl)propanoic Acid]
- degradation of potential off target GSPT1 [3]: did not induce the degradation
- KEAP1 levels after washout relative to vehicle-treated cells [4]: remained below levels in vehicle-treated cells 4 h after washout
- degradation of potential off target IKZF3 [5]: did not induce the degradation
- degradation of KEAP1 [6]: induced the degradation of KEAP1
- KEAP1 degradation in CRBN−/− MM.1S cells [7]: did not induce KEAP1 degradation
- degradation of potential off target IKZF1 [8]: did not induce the degradation
- KEAP1 degradation in WT MM.1S cells [9]: induced KEAP1 degradation

SMILES: COc1cc(C(CC(=O)O)c2ccc(C)c(CN3C[C@@H](C)Oc4cc(CCCCCCNC(=O)COc5cc6c7c(cccc7c5)C(=O)N(C5CCC(=O)NC5=O)C6=O)ccc4S3(=O)=O)c2)cc2nnn(C)c12 (stereo partly drawn) [compound 4, 3-(3-(((4R)-7-(6-(2-((2-(2,6-dioxopiperidin-3-yl)-1,3-dioxo-2,3-dihydro-1H-benzo[de]isoquinolin-5-yl)oxy)acetamido)hexyl)-4-methyl-1,1-dioxido-3,4-dihydro-2H-benzo[b][1,4,5]oxathiazepin-2-yl)methyl)-4-methylphenyl)-3-(7-methoxy-1-methyl-1H-benzo[d][1,2,3]triazol-5-yl)propanoic Acid]
- degradation of potential off target GSPT1 [3]: did not induce the degradation
- KEAP1 levels after washout relative to vehicle-treated cells [4]: remained below levels in vehicle-treated cells even 24 h after washout
- degradation of potential off target IKZF3 [5]: did not induce the degradation
- degradation of KEAP1 [6]: induced the degradation of KEAP1
- KEAP1 degradation in CRBN−/− MM.1S cells [7]: did not induce KEAP1 degradation
- degradation of potential off target IKZF1 [8]: did not induce the degradation
- KEAP1 degradation in WT MM.1S cells [9]: induced KEAP1 degradation
